Assay results published in PubChem BioAssay (NCI).
Several values for one entry are separate records, joined by “and”; a condition that tells them apart may be missing. Identical values can stand only once.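 The compound was tested at five concentrations on cells cultured in 96-well plates, with a 48-hour exposure period. GI50 = concentration required for 50% inhibition of growth. TGI denotes the concentration required for complete inhibition of growth.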

Key:
Test in all cases: NCI-60 cell line screen, 48 h
[1] = system: HCT-15 colon
[2] = system: MALME-3M melanoma
[3] = system: NCI-H522 lung
[4] = system: OVCAR-8 ovarian
[5] = system: SF-268 CNS
[6] = system: SK-OV-3 ovarian
[7] = system: TK-10 renal
[8] = system: U251 CNS
[9] = system: UACC-62 melanoma
[10] = system: LOX IMVI melanoma

Structure (SMILES): CC1=CC(=O)c2[nH]c3ccccc3c2C1=O
- GI50 [1]: 4.2 µM
- TGI [1]: 7.61 µM
- GI50 [2]: 4.85 µM
- TGI [2]: 8.54 µM
- GI50 [3]: 3.82 µM
- TGI [3]: 7.24 µM
- TGI [4]: 7.45 µM
- GI50 [5]: 4.36 µM
- TGI [5]: 7.89 µM
- GI50 [6]: 21.1 µM
- TGI [6]: > 25 µM
- GI50 [7]: 5.04 µM
- TGI [7]: 9.24 µM
- GI50 [8]: 15.4 µM
- TGI [8]: > 25 µM
- GI50 [9]: 4.21 µM
- TGI [9]: 7.67 µM

Structure (SMILES): Cn1cc(/C=C2\C(=O)Nc3cccnc32)c2ccccc21
- GI50 [1]: > 17.3 µM
- TGI [1]: > 25 µM
- GI50 [10]: 7.77 µM
- TGI [10]: > 25 µM
- GI50 [2]: 24.5 µM
- TGI [2]: > 25 µM
- GI50 [3]: 14.7 µM
- TGI [3]: > 25 µM
- GI50 [4]: 16.9 µM
- TGI [4]: > 25 µM
- GI50 [5]: > 21.7 µM
- TGI [5]: > 25 µM
- GI50 [6]: 17 µM
- TGI [6]: > 25 µM
- GI50 [7]: 12.3 µM
- TGI [7]: > 25 µM
- GI50 [8]: > 25 µM
- TGI [8]: > 25 µM
- GI50 [9]: 8.82 µM
- TGI [9]: > 25 µM

Structure (SMILES): C/C(=N\n1c(N)c(C#N)c(-c2ccc(Cl)cc2)c(C#N)c1=O)c1cccnc1
- GI50 [1]: > 100 µM
- TGI [1]: > 100 µM
- GI50 [10]: > 100 µM
- TGI [10]: > 100 µM
- GI50 [2]: > 100 µM
- TGI [2]: > 100 µM
- GI50 [4]: > 100 µM
- TGI [4]: > 100 µM
- GI50 [5]: > 100 µM
- TGI [5]: > 100 µM
- GI50 [6]: > 100 µM
- TGI [6]: > 100 µM
- GI50 [7]: > 100 µM
- TGI [7]: > 100 µM
- GI50 [8]: > 100 µM
- TGI [8]: > 100 µM
- GI50 [9]: > 100 µM
- TGI [9]: > 100 µM

Structure (SMILES): C(=C1/CCCCC([n+]2ccccc2)=N1)/c1ccccc1
- TGI [1]: > 100 µM
- TGI [10]: > 100 µM
- TGI [2]: > 100 µM
- TGI [3]: > 100 µM
- TGI [4]: > 100 µM
- TGI [5]: > 100 µM
- TGI [6]: > 100 µM
- TGI [8]: > 100 µM
- TGI [9]: > 100 µM

Structure (SMILES): C[P+](C)(CC(F)(F)F)c1ccccc1
- TGI [1]: > 100 µM
- TGI [10]: > 100 µM
- TGI [2]: > 100 µM
- TGI [3]: > 100 µM
- TGI [4]: > 100 µM
- TGI [6]: > 100 µM
- TGI [7]: > 100 µM
- TGI [8]: > 100 µM
- TGI [9]: > 100 µM

Structure (SMILES): C[Si](C)(C)[C@@]1([Se]c2ccccc2)CC[C@@H]1C(=O)c1ccccc1
- TGI [1]: > 100 µM
- TGI [10]: > 100 µM
- TGI [2]: > 100 µM
- TGI [3]: 58.1 µM
- TGI [4]: > 100 µM
- TGI [5]: > 100 µM
- TGI [6]: > 100 µM
- TGI [7]: > 100 µM
- TGI [8]: > 100 µM
- TGI [9]: > 100 µM

Structure (SMILES): O=C1CCC(c2ccccc2)(c2ccccc2)CC1
- TGI [1]: > 100 µM
- TGI [10]: > 100 µM
- TGI [2]: > 100 µM
- TGI [3]: > 100 µM
- TGI [4]: > 100 µM
- TGI [5]: > 100 µM
- TGI [6]: > 100 µM
- TGI [7]: > 100 µM
- TGI [8]: > 100 µM
- TGI [9]: > 100 µM

Structure (SMILES): O=C(O)c1oc2ccc([N+](=O)[O-])c3c2c1CCC3
- TGI [10]: > 100 µM
- TGI [2]: > 100 µM
- TGI [3]: > 100 µM
- TGI [4]: > 100 µM
- TGI [5]: > 100 µM
- TGI [7]: > 100 µM
- TGI [8]: > 100 µM

Structure (SMILES): O=C1CCCC2COc3ccc(O)c1c32 (stereo not given)
- TGI [1]: > 100 µM
- TGI [2]: > 100 µM
- TGI [3]: > 100 µM
- TGI [4]: > 100 µM
- TGI [5]: > 100 µM
- TGI [6]: > 100 µM
- TGI [7]: > 100 µM
- TGI [8]: > 100 µM
- TGI [9]: > 100 µM

Structure (SMILES): Fc1ccc(-c2c(-c3ccncc3)n(CCN3CCOCC3)c3cccnc23)cc1
- GI50 [1]: > 25 µM
- TGI [1]: > 25 µM
- GI50 [10]: > 25 µM
- TGI [10]: > 25 µM
- GI50 [2]: > 25 µM
- TGI [2]: > 25 µM
- GI50 [3]: > 25 µM
- TGI [3]: > 25 µM
- GI50 [4]: > 25 µM
- TGI [4]: > 25 µM
- GI50 [5]: > 25 µM
- TGI [5]: > 25 µM
- GI50 [6]: > 25 µM
- TGI [6]: > 25 µM
- GI50 [7]: > 25 µM
- TGI [7]: > 25 µM
- GI50 [8]: > 25 µM
- TGI [8]: > 25 µM
- GI50 [9]: > 25 µM
- TGI [9]: > 25 µM

Structure (SMILES): NC(=NC1C2CC3CC(C2)CC1C3)Nc1ccc(I)cc1 (stereo not given)
- GI50 [1]: 2.88 µM
- TGI [1]: 10.2 µM
- GI50 [10]: 1.78 µM
- TGI [10]: 3.51 µM
- GI50 [2]: 2.09 µM
- TGI [2]: 5.36 µM
- GI50 [3]: 2.63 µM
- TGI [3]: 11.2 µM
- GI50 [4]: 6.61 µM
- TGI [4]: 23.4 µM
- GI50 [5]: 4.52 µM
- TGI [5]: 17.8 µM
- GI50 [6]: 8.68 µM
- TGI [6]: 23.3 µM
- GI50 [7]: 2.59 µM
- TGI [7]: 8.85 µM
- GI50 [8]: 3.42 µM
- TGI [8]: 12.6 µM
- GI50 [9]: 2.88 µM
- TGI [9]: 9.33 µM

Structure (SMILES): O=C(O)c1c(Cl)c(Cl)c(Cl)c(Cl)c1-c1c2cc(I)c(=O)c(I)c-2oc2c(I)c(O)c(I)cc12
- GI50 [1]: 55.7 µM
- TGI [1]: 162 µM
- GI50 [10]: 19 µM and 34.7 µM
- TGI [10]: 43.1 µM and 67.9 µM
- GI50 [3]: 26.6 µM and 39.4 µM
- TGI [3]: 59.9 µM and 83.2 µM
- GI50 [4]: 58.2 µM and 47.4 µM
- TGI [4]: 115 µM
- GI50 [5]: 41.3 µM and 36.8 µM
- TGI [5]: 81.2 µM
- GI50 [6]: 32.4 µM
- TGI [6]: 78.6 µM
- GI50 [7]: 59 µM
- TGI [7]: > 200 µM
- GI50 [8]: 26.3 µM and 35.1 µM
- TGI [8]: 83.9 µM
- GI50 [9]: 18.6 µM and 31.6 µM
- TGI [9]: 41.3 µM and 68.6 µM

Structure (SMILES): CC(C)S(=O)(=O)n1c(N)nc2ccc(/C(=N/O)c3ccccc3)cc21
- TGI [1]: 79.3 µM
- TGI [2]: > 100 µM
- TGI [3]: 35.2 µM
- TGI [4]: > 100 µM
- TGI [5]: > 100 µM
- TGI [6]: 83 µM
- TGI [7]: > 100 µM
- TGI [8]: > 100 µM
- TGI [9]: 81.8 µM

Structure (SMILES): Cc1cc(C(=O)NCCN(C)C)c2nc3ccccc3nc2c1
- TGI [1]: 27.6 µM
- TGI [10]: 9.17 µM
- TGI [2]: 13.8 µM
- TGI [3]: > 100 µM
- TGI [4]: > 76.6 µM
- TGI [6]: > 46 µM
- TGI [7]: > 59.1 µM
- TGI [8]: 33.3 µM
- TGI [9]: 18.7 µM

Structure (SMILES): Cc1ccc(C)c2sc3cc(=O)ccc-3nc12
- TGI [1]: > 100 µM
- TGI [3]: 67.6 µM
- TGI [4]: > 100 µM
- TGI [5]: > 100 µM
- TGI [6]: > 100 µM
- TGI [7]: 66.8 µM
- TGI [8]: > 100 µM
- TGI [9]: 33.6 µM

Structure (SMILES): COc1ccc2c(c1)[n+]([O-])c(-c1ccc(Cl)c(Cl)c1)c(N)[n+]2[O-]
- TGI [1]: > 100 µM
- TGI [2]: 58.5 µM
- TGI [3]: 27.6 µM
- TGI [4]: > 100 µM
- TGI [5]: > 100 µM
- TGI [6]: > 100 µM
- TGI [8]: > 100 µM

Structure (SMILES): CCOC(=O)c1cc2cc([N+](=O)[O-])ccc2oc1=O
- TGI [1]: > 100 µM
- TGI [10]: > 100 µM
- TGI [2]: > 100 µM
- TGI [3]: > 100 µM
- TGI [4]: > 100 µM
- TGI [5]: > 100 µM
- TGI [8]: > 100 µM
- TGI [9]: > 100 µM

Structure (SMILES): CC(=O)OCC1OC(O[C@@H]2C[C@H]3C(C)(C)[C@H](OC(C)=O)CC[C@]3(C)[C@H]3CC[C@@H]4[C@]5(CC[C@@]4(C)[C@@]32C)O[C@@H]([C@H](O)C(C)(C)O)C[C@@H]5C)C(O)C(O)C1O (stereo not given in full)
- GI50 [1]: 2.19 µM
- TGI [1]: 5.94 µM
- GI50 [10]: 3.61 µM
- TGI [10]: 15.6 µM
- GI50 [2]: 10.3 µM
- TGI [2]: 22.4 µM
- GI50 [3]: 7.1 µM
- TGI [3]: 21.2 µM
- GI50 [4]: 9.35 µM
- TGI [4]: 23.7 µM
- GI50 [5]: 9.34 µM
- TGI [5]: 23.7 µM
- GI50 [6]: 7.95 µM
- TGI [6]: 20.7 µM
- TGI [8]: 19.1 µM
- GI50 [9]: 6.36 µM
- TGI [9]: 19.7 µM
